Data set [1] in a line: Differential scanning calorimetry, decomposing exothermic peak. The format is physicochemical. Particulars: 25˜200° C., 10° C./min, nitrogen 80 mL/min. The method, then:
The novel crystalline form of Cefathiamidine compound provided in the present invention is determined by differential scanning calorimeter, and the differential scanning calorimetry thermogram comprises a melting endothermic peak at 169.6±1° C. and a decomposing exothermic peak at 172.2±1° C. as shown in FIG. 6. Test conditions are as follows: temperature range, 25˜200° C., temperature rising rate, 10° C./min, nitrogen protection: 80 mL/min.

The nature of data set [2]: Toxicity test, LD50 in mice. Particulars: mouse, in vivo. The method, then: (§1) The novel crystalline form of Cefathiamidine compound of the present invention was tested by toxicity tests and in vitro antibacterial activity tests (taking the crystalline form of Cefathiamidine compound obtained in Example 1 for example).
The nature of data set [3]: Reproductive toxicity test. It is filed as in vivo. Particulars: compared with prior art. The method, then: as §1
The test system of a further data set is another three bacterias. Description: In vitro antibacterial activity test. The format is cell-based. Particulars: against another three bacterias. The method, then:
as §1
(§2) Thus, the antibacterial activity was better than that of any prior art, and was more suitable for clinical application.

Another data set relates to enterococcus. In words: In vitro antibacterial activity test. The format is cell-based. The settings on record: against enterococcus. The method, then: as §1, §2
A further data set concerns haemophilus influenza. Description: In vitro antibacterial activity test. The format is cell-based. Particulars: against haemophilus influenza. The method, then:
as §1, §2

The next data set concerns streptococcus pneumonia. In words: In vitro antibacterial activity test. The format is cell-based. The settings on record: Streptococcus pneumoniae; against streptococcus pneumonia. The method, then: as §1, §2
A further data set deals with streptococcus pyogenes. Description: In vitro antibacterial activity test. The format is cell-based. The settings on record: against streptococcus pyogenes. The method, then: as §1, §2
The nature of data set [4]: Thermal stability tests (storage). It is filed as physicochemical. Particulars: within 4 months at 30° C. The method, then: 5 g of solid Cefathiamidine compound with a purity of 98% was added to 100 mL of ethanol at a temperature of 45° C., until being totally dissolved to form a solution, and then 300 mL of isopropanol as a solventing-out agent was dropwise added to the solution within 3 hours; followed by cooling the solution down to 0° C. at a rate of 0.2° C./min; continuing to stir for 3 hours.

For data set [5] the following is noted: prior-art crystalline forms; cited from earlier work.

With `CC(=O)OCC1=C(C(=O)O)N2C(=O)[C@@H](NC(=O)CSC(=NC(C)C)NC(C)C)[C@H]2SC1`, in [1], the “thermal decomposing temperature (decomposing exothermic peak, DSC)” value (“thermal decomposing temperature” below) was 172.2±1 °C.
Take `CC(=O)OCC1=C(C(=O)O)N2C(=O)[C@@H](NC(=O)CSC(=NC(C)C)NC(C)C)[C@H]2SC1.N` [Example 1, (6R,7R)-3[(acetyloxy)methyl]-7-[α-(N,N′-diisopropyl-carbamimidoylsulfanyl)-acetylamino]-8-oxo-5-thia-1-aza-bicyclo[4,2,0]oct-2-ene-2-carboxylic acid ammonium salt]: the LD50 was found to be 1300 ± 200 mg/kg in data set [2] (ip, intraperitoneal injection) and 1100 ± 20 mg/kg in data set [2] (mice, intravenous injection). Besides, in [3], the reproductive toxicity entry is on record as “lower reproductive toxicity than that of any prior art”. The MIC90 was < 7.8 µg/mL in the data set with another three bacterias; 1.9 µg/mL against enterococcus; 1.8 µg/mL against haemophilus influenza; 0.24 µg/mL in the data set on streptococcus pneumonia; 0.48 µg/mL against streptococcus pyogenes. In addition, the “thermal stability (change on storage)” value in [4] is “did not make any change”. Also, the “thermal decomposing temperature” value in [1] stood at 172.2 °C.
In the case of `CC(=O)OCC1=C(C(=O)O)N2C(=O)[C@@H](NC(=O)CSC(=NC(C)C)NC(C)C)[C@H]2SC1` [Example 6], in [4], the “thermal stability (change on storage)” value is on record as “did not make any change”. The “thermal decomposing temperature” value in data set [1] was found to be 171.8 °C.
On to `CC(=O)OCC1=C(C(=O)O)N2C(=O)[C@@H](NC(=O)CSC(=NC(C)C)NC(C)C)[C@H]2SC1` [crystalline form of Cefathiamidine obtained from acetonitril], for which the “thermal cracking / decomposition temperature” value in data set [5] is 145.4 °C.
On to `CC(=O)OCC1=C(C(=O)O)N2C(=O)[C@@H](NC(=O)CSC(=NC(C)C)NC(C)C)[C@H]2SC1` [crystalline form prepared in CN1495187A], for which the “thermal cracking / decomposition temperature” value in [5] was ≥ 154±1 °C.

(Values after patent US9637502B2, “Crystal form of Cefathiamidine compound and preparation method therefor” (TIANJIN UNIVERSITY, priority 2014, dated 2017).)
